2 molecules from USRE39682E1, “Farnesyl derivatives and pharmaceutical compositions containing them” (Ramot at Tel Aviv University Ltd., priority 1993, dated 2007) can be followed below.

For orientation: % Inhibition means the share of the control response that was lost under treatment.

The test system of one test is untransformed rat1 cells. Nature of the test: Growth of untransformed rat1 cells (cell counting). It is filed as cell-based, rat. The note with it: for effect on the growth of normal rat1 cells: 0.1-50 μM, 3, 7 or 10 days, FIG. 7. The procedure: HEC1A, V-raf-3T3 and SV40-CHE cells were grown in Dulbecco's modified Eagle medium (DMEM) containing 10% fetal calf serum (FCS), 4 mM L-glutamine, 10 μg/ml streptomycin and 10 U/ml penicillin. Rat1 and -EJ cells were grown in the same medium except that it was supplemented with 12.5 U/ml nyostatin. RB-22 cells were grown in modified DMEM (1 mM sodium pyruvate, 20 mM sodium bicarbonate)/10% FCS containing 4 mM L-glutamine, […] streptomycin, 10 U/ml penicillin. PC-12 cells were grown in DMEM 15% FCS/5% horse serum and the above noted antibiotics.
HEC1A cells were plated in 24 well plates at a density of 5×10^3 cells per well and fed with 1 ml of medium. The cells were grown at 37° C. in a humidified atmosphere of 95%/5% air/CO2. All other cell types employed were plated in 24 well plates at a density of 2×10^3 cells per well and fed with the appropriate medium.
Cultures were treated with farnesyl derivatives or with solvent either 3 hrs following plating or one day after plating as indicated. The drugs were prepared in DMSO to yield the final desired drug (0.1-50 μM) concentration and 0.1% DMSO. Control cultures received 0.1% DMSO only. Cultures were fed on days 6, 7 and 9 of the experiment with the drugs or with solvent-containing media.
[…] For counting, cells were detached from plates with trypsin/EDTA, and collected by a low speed spin in the presence of DMEM/10% FCS. The pelleted cells were resuspended in a small volume of DMEM/10% FCS and counted under the microscope. Viability of cells was estimated by staining with (3-(4,5-dimethylthiosol-2-yl)-2,5-diphenyltetrazolium bromide (MTT) and microscopic examination of the stained and unstained cells, or spectrophotometric estimation (OD490, 590) of the total stain in each well. Non viable cells were estimated by the trypan blue exclusion method.
Cells were plated at a density 2×10^3/well and received either solvent or drugs one day later. Following 3, 7, or 10 days of the drugs-treatment as described above, cells were collected and the number of cells in each well was estimated by direct counting. […]

Another test deals with T1, PPMTase (Rattus norvegicus, UniProt Q9WVM4).
T1 construct: PPMTase activity in membranes obtained from four different cell lines as determined by methylation of AFC; endogenous in cells; host or cells: ras-transformed rat1 (EJ) cell membranes
T1 sequence (Q9WVM4 whole entry): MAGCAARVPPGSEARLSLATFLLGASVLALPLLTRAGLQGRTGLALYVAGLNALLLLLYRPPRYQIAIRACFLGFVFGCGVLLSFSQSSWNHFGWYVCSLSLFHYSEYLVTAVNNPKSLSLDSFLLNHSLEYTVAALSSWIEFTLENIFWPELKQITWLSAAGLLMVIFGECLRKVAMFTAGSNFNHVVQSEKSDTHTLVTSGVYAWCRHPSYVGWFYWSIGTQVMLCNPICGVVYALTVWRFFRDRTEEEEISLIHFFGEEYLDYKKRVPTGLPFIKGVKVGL
Nature of the test: PPMTase activity (AFC methylation) in membranes of non-transformed Rat-1 cells. The settings on record: non-transformed Rat-1 membranes; for PPMTase activity: with inhibitor. It is filed as biochemical. As for the experimental part: Charles River adult male rats were used for preparation of cerebellar synaptosomal membranes. Cerebella were removed after decapitation and homogenized in 0.32M sucrose containing 50 mM Tris-HCl pH 7.4, 3 mM EDTA, 1 mM EGTA, 5 unit/ml aprotinin and 5 μg/ml pepstatin (buffer A) to yield 10% (w/v) homogenates. Nuclear fractions were obtained by 10 min. 600×g centrifugation and synaptosomal fractions were obtained by 20 mins. 14,500×g centrifugation. Membranes of the various cell types used were prepared in the above buffer A by a 60 min. spin at 100,000×g.
Pellets were resuspended in the homogenization buffer and stored at −70° C. Methylation assays were performed at 37° C. in 50 mM Tris-HCl buffer pH 7.4, using 75-125 μg protein, 25 μM [methyl-^3H]AdoMet ([…]) as a methyl donor and 150 μM AFC as a methylation substrate (prepared as a stock solution in DMSO) in a total volume of 50 μl. DMSO concentration in all assays was 4%.
(§1) Reactions were terminated after 10 min. by adding 500 μl chloroform methanol (1:1) and a subsequent addition of 250 μl H2O, mixing them and subsequently by phase separation. A portion of 125 μl of the chloroform phase was dried down at 40° C. and 200 μl of 1M NaOH/1% SDS solution were added thereto. The [^3H]methanol thus formed was counted by the vapor phase equilibrium method as described previously (Hakiai et al., Cell Mol. Neurobiol., 11, 415-431, (1991); Lenner et al., Cell Mol. Neurbiol., 12, 333 and 3351, (1992); Ben-Baruch et al., Biochem. Biophy. Res. Commun., 195, 282-288, (1993)). Typical background counts (i.e. counts of methylation with no AFC added) were 50-100 cpm while typical methylation counts with AFC as a substrate yielded 500 to 6000 cpm. Assays were performed in triplicate and background counts subtracted. Methylation of endogenous substrates, in intact cells, and [α-^32P] GTP-blot overlay assays and gel electrophoreses were performed as detailed previously (Hakiai et al., supra (1991); Lenner et al., supra (1993)).
The B16F10 melanoma cells were grown in RPMI 1640/10% fetal calf serum, 2 mM glutamine and antibiotics as for the HEC1A cells, at the density of 1×10^4 cells/well. All four types of cells were used for determining the PPMTase activity using AFC as the substrate as described above for synaptosomal membrane preparation. Usually 150 μg membranal proteins were used in the assay for a 10 min. incubation time.

The subject of test [1] is PPMTase activity in intact HEC1A, ras-transformed rat1 and melanoma cells. The test is described as follows: Methylation of endogenous 21-24 KDa GTP-binding proteins in intact cells ([methyl-3H]methionine labelling). The settings on record: 100 μM, FIG. 3. It is filed as cell-based. As for the experimental part:
as §1
HEC1A, rail, ras-transformed rail and B16F10 melanoma cells were also used for metabolic labelling of endogenous proteins with 100-300 μCi/ml [methyl-^3H]methionine which was also indicative of PPMTase activity. […]

Molecules are shown by their SMILES.

For `CC(C)=CCC/C(C)=C/CC/C(C)=C/CSc1ccccc1C(=O)O` [FTS, (3,7,11-trimethyl-dodeca-2,6,10-trienyl)-2-thiobenzoic acid], in the test with untransformed rat1 cells, the “effect on the growth of normal rat1 cells” value is listed as “neither FTA nor FTS has any significant effect”. In the test with untransformed rat1 cells (Ras1, 25 μM, day 5), the “Number of cells (% of control)” value was 97 ± 10 % of control. In addition, at PPMTase, the “% Inhibition” value was found to be 45% and the PPMTase activity amounted to 1.5 pmol/min/mg protein. In addition, the “inhibition of methylation of endogenous 21-24 KDa proteins” value in test [1] is “able to inhibit”.

Turning to `CC(C)=CCC/C(C)=C/CC/C(C)=C/CSCC(=O)O` [FTA, S-trans, trans-farnesylthioacetic acid, reference compound], in the test with untransformed rat1 cells, the “effect on the growth of normal rat1 cells” value was “neither FTA nor FTS has any significant effect”. At PPMTase, the “% Inhibition” value came to 66% and the PPMTase activity is 0.9 pmol/min/mg protein. For the same molecule, the “inhibition of methylation of endogenous 21-24 KDa proteins” value in test [1] is reported as “able to inhibit”.
